Values after ≈ are worked out from the molar mass of the structure shown.
Assays:
[1] = Antioxidant activity assessed as DPPH radical scavenging activity incubated for 25 mins by spectrophotometric analysis; type: functional
Mus musculus [2] = assay: Antiinflammatory activity in ICR mouse model of TPA-induced ear edema assessed as inhibition of ear inflammation at 1 mg,TOP for 30 mins followed by TPA addition and measured after 6 hrs; type: functional; details: time 390 min, 6.5 h
RAW264.7 [3] = assay: Cytotoxicity against mouse RAW264.7 cells assessed as reduction in cell viability at 30 uM by MTT assay; type: toxicity, cell-based; details: raw264.7, 30 µM
[4] = Antioxidant activity assessed as DPPH radical scavenging activity incubated for 30 mins by spectrophotometric analysis; type: functional
RAW264.7 [5] = assay: Antiinflammatory activity in mouse RAW264.7 cells assessed as inhibition of LPS-induced NO production preincubated for 1 hrs followed by LPS stimulation and measured after 24 hrs by Griess reagent based analysis; type: functional, cell-based
RAW264.7 [6] = assay: Antiinflammatory activity in mouse RAW264.7 cells assessed as inhibition of LPS-induced NO production at 30 uM preincubated for 0.5 hrs followed by LPS stimulation and measured after 24 hrs by Griess reagent based analysis; type: functional; details: time 24.5 hrs
J774.A1 [7] = assay: Antiinflammatory activity in mouse J774.A1 cells assessed as inhibition of LPS-induced IL-6 production at 10 microg/ml preincubated for 30 mins followed by LPS stimulation and measured after 2 hrs by Griess reagent based analysis; type: functional; details: J774.A1, 2.5 h, time 150 min
RAW264.7 [8] = assay: Antiinflammatory activity in mouse RAW264.7 cells assessed as inhibition of IFN-gamma and LPS-induced NO production incubated for 24 hrs by Griess assay; type: functional, cell-based; details: RAW264.7, 24 h
RAW264.7 [9] = assay: Antiinflammatory activity in mouse RAW264.7 cells assessed as inhibition of LPS-induced NO production preincubated for 0.5 hrs followed by LPS stimulation and measured after 24 hrs by Griess reagent based analysis; type: functional, cell-based
J774.A1 [10] = assay: Antiinflammatory activity in mouse J774.A1 cells assessed as inhibition of LPS-induced TNF-alpha production at 10 microg/ml preincubated for 30 mins followed by LPS stimulation and measured after 2 hrs by Griess reagent based analysis; type: functional; details: J774.A1, 2.5 h, time 150 min
RAW264.7 [11] = assay: Antiinflammatory activity against mouse RAW264.7 cells assessed as inhibition of IFN-gamma and LPS-induced COX2 production preincubated for 2 hrs followed by IFN-gamma and LPS stimulation and measured after 16 hrs by spectrophotometric analysis; type: functional, cell-based
MCF-10A = assay: Antiinflammatory activity in human MCF-10A cells assessed as inhibition of TPA-induced COX2 production at 12.5 to 100 uM incubated for 4 hrs by Western blot analysis; type: functional; details: dose 12.5-100 µM
RAW264.7 [12] = assay: Antiinflammatory activity in mouse RAW264.7 cells assessed as inhibition of LPS-induced NO production incubated for 24 hrs by Griess reagent based analysis; type: functional, cell-based; details: RAW264.7, 24 h
RAW264.7 [13] = assay: Antiinflammatory activity in mouse RAW264.7 cells assessed as inhibition of IFN-gamma and LPS-induced NO production incubated for 20 hrs by Griess assay; type: functional, cell-based; details: RAW264.7, 20 h
RAW264.7 [14] = assay: Antiinflammatory activity in mouse RAW264.7 cells assessed as inhibition of LPS-induced NF-kappaB activation incubated for 24 hrs by SEAP microplate reader analysis; type: functional, cell-based; details: RAW264.7, 24 h
RAW264.7 [15] = assay: Antiinflammatory activity in mouse RAW264.7 cells assessed as inhibition of LPS-induced NO production incubated for 20 hrs by Griess method; type: functional, cell-based; details: RAW264.7, 20 h
[16] = Antioxidant activity assessed as nitroblue tetrazolium superoxide radical scavenging activity incubated for 10 mins by spectrophotometric analysis; type: functional
RAW264.7 [17] = assay: Antiinflammatory activity in mouse RAW264.7 cells assessed as inhibition of LPS-induced TNFalpha production preincubated for 1 hr followed by LPS stimulation and measured after 18 hrs by immunoassay; type: functional, cell-based
Mus musculus [18] = assay: Antiinflammatory activity in Dermatophagoides farina induced atopic dermatitis like skin lesions NC/Nga mouse model assessed as inhibition of COX-2 expression level at 0.1 %,ip twice a week for 4 weeks by RT-PCR analysis; type: functional
[19] = Antiinflammatory activity in human HEK001 cells assessed as inhibition of LPS induced IL-8 production at […] incubated for 24 hrs by ELISA; type: functional; details: dose 7.5 µM
[20] = Antioxidant activity assessed as nitroblue tetrazolium superoxide radical scavenging activity by spectrophotometric analysis; type: functional
[21] = Antiinflammatory activity in human Keratinocytes assessed as inhibition of LPS induced CCL17 production at […] incubated for 24 hrs by ELISA; type: functional; details: Keratinocyte, dose 7.5 µM
[22] = Antiinflammatory activity in human Keratinocytes assessed as inhibition of LPS induced IL-1beta production at […] incubated for 24 hrs by ELISA; type: functional; details: Keratinocyte, dose 7.5 µM
[23] = Antiinflammatory activity in human Keratinocytes assessed as inhibition of LPS induced ERK production at […] incubated for 24 hrs by ELISA; type: functional; details: Keratinocyte, dose 7.5 µM
[24] = Antiinflammatory activity in human HEK001 cells assessed as inhibition of TNF-alpha induced IL-8 production at […] incubated for 24 hrs by ELISA; type: functional; details: dose 7.5 µM
Mus musculus [25] = assay: Antiinflammatory activity in Dermatophagoides farina induced atopic dermatitis like skin lesions NC/Nga mouse model assessed as inhibition of COX-2 expression level at 1 %,ip twice a week for 4 weeks by RT-PCR analysis; type: functional
[26] = Antiinflammatory activity in human HEK001 cells assessed as inhibition of TNF-alpha induced CCL7 production at […] incubated for 24 hrs by ELISA; type: functional; details: dose 7.5 µM
[27] = Antiinflammatory activity in mouse BMDM cells assessed as inhibition of LPS induced IL-1beta secretion at 5 uM; type: functional
RAW264.7 [28] = assay: Antiinflammatory activity in mouse RAW264.7 cells assessed as inhibition of LPS-induced NO production incubated for 24 hrs by Griess method; type: functional, cell-based; details: RAW264.7, 24 h
[29] = Cytotoxicity against mouse RAW264.7 cells assessed as reduction in cell viability by MTT assay; type: toxicity, cell-based
[30] = Antiinflammatory activity in human HEK001 cells assessed as inhibition of LPS induced CCL17 production at […] incubated for 24 hrs by ELISA; type: functional; details: dose 7.5 µM
Mus musculus [31] = assay: Antiinflammatory activity in Dermatophagoides farina induced atopic dermatitis like skin lesions NC/Nga mouse model assessed as inhibition of iNOS expression level at 1 %,ip twice a week for 4 weeks by RT-PCR analysis; type: functional
[32] = biological target: Nuclear factor NF-kappa-B complex (Homo sapiens) (UniProt Q00653+P19838+Q04206); assay: Inhibition of human NF-kappaB p65 binding to DNA in LPS-stimulated human keratinocytes at […] for 30 mins by ELISA; type: cell-based; details: Keratinocyte, dose 7.5 µM
Mus musculus [33] = assay: Antiinflammatory activity in Dermatophagoides farina induced atopic dermatitis like skin lesions NC/Nga mouse model assessed as inhibition of iNOS expression level at 0.1 %,ip twice a week for 4 weeks by RT-PCR analysis; type: functional
Mus musculus [34] = assay: Antiinflammatory activity in Dermatophagoides farina induced atopic dermatitis like skin lesions NC/Nga mouse model assessed as inhibition of IL-5 level at 1 %,ip twice a week for 4 weeks by ELISA; type: functional
Mus musculus [35] = assay: Antiinflammatory activity in Dermatophagoides farina induced atopic dermatitis like skin lesions NC/Nga mouse model assessed as inhibition of IL-4 level at 0.1 %,ip twice a week for 4 weeks by ELISA; type: functional
[36] = Antiinflammatory activity in human HEK001 cells assessed as inhibition of TNF-alpha induced NO production incubated for 24 hrs at […] by Griess reagent based analysis; type: functional; details: dose 7.5 µM
Mus musculus [37] = assay: Antiinflammatory activity in Dermatophagoides farina induced atopic dermatitis like skin lesions NC/Nga mouse model assessed as inhibition of IL-4 level at 1 %,ip twice a week for 4 weeks by ELISA; type: functional
[38] = Antiinflammatory activity in human HEK001 cells assessed as inhibition of LPS induced IL-1beta production at […] incubated for 24 hrs by ELISA; type: functional; details: dose 7.5 µM
[39] = Antiinflammatory activity in human HEK001 cells assessed as inhibition of TNF-alpha induced PGE2 production at […] incubated for 24 hrs by ELISA; type: functional; details: dose 7.5 µM
Mus musculus [40] = assay: Antiinflammatory activity in Dermatophagoides farina induced atopic dermatitis like skin lesions NC/Nga mouse model assessed as inhibition of IL-5 level at 0.1 %,ip twice a week for 4 weeks by ELISA; type: functional

Sequence of Nuclear factor NF-kappa-B complex (Homo sapiens) (P19838 whole entry, looked up): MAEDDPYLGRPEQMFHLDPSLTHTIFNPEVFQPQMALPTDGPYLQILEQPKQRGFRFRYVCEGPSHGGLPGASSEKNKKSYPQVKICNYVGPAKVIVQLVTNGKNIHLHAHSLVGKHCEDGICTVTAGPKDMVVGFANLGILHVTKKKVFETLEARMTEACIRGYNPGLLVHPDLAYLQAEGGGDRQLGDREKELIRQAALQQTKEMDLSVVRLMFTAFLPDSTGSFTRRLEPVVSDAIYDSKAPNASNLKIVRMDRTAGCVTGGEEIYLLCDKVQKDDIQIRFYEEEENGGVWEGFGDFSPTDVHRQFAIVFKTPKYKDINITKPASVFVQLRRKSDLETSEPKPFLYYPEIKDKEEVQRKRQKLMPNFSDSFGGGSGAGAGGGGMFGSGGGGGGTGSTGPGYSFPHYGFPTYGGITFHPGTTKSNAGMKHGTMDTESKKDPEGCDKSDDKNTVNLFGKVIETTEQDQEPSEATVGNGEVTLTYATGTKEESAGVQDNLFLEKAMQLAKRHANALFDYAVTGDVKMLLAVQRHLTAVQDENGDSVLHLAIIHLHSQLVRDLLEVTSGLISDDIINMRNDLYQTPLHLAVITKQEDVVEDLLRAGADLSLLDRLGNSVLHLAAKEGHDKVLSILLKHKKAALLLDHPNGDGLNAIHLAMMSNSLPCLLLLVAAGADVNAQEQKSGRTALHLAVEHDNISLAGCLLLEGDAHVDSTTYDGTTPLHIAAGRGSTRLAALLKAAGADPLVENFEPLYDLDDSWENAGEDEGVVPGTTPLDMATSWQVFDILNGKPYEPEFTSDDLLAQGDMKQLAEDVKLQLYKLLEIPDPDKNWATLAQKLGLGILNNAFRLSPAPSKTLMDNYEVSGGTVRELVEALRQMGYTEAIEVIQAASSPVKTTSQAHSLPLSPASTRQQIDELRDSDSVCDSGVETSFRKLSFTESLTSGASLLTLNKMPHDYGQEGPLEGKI
Sequence of Nuclear factor NF-kappa-B complex (Homo sapiens) (Q00653 whole entry, looked up): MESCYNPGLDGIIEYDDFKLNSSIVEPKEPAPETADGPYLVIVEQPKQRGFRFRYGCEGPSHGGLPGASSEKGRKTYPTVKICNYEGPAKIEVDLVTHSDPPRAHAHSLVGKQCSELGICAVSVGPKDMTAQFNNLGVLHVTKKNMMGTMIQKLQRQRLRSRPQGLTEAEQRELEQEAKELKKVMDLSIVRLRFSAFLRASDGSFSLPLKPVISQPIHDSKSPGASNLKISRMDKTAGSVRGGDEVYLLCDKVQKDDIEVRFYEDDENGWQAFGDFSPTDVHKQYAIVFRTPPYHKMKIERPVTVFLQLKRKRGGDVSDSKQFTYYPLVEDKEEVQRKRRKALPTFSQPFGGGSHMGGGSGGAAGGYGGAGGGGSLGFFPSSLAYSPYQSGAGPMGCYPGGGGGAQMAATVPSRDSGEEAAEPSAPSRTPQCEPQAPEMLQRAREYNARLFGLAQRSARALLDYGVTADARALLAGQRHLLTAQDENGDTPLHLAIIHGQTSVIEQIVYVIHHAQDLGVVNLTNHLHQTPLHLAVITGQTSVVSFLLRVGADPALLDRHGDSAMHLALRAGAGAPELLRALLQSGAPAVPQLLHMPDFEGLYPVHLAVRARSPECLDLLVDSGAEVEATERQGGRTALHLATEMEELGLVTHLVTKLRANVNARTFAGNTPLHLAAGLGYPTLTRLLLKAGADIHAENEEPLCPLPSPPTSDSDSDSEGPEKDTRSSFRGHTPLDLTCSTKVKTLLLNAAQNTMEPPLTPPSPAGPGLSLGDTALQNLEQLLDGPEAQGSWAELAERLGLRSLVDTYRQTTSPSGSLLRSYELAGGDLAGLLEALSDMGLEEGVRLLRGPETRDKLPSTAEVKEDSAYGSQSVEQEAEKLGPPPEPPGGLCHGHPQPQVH
Sequence of Nuclear factor NF-kappa-B complex (Homo sapiens) (Q04206 whole entry, looked up): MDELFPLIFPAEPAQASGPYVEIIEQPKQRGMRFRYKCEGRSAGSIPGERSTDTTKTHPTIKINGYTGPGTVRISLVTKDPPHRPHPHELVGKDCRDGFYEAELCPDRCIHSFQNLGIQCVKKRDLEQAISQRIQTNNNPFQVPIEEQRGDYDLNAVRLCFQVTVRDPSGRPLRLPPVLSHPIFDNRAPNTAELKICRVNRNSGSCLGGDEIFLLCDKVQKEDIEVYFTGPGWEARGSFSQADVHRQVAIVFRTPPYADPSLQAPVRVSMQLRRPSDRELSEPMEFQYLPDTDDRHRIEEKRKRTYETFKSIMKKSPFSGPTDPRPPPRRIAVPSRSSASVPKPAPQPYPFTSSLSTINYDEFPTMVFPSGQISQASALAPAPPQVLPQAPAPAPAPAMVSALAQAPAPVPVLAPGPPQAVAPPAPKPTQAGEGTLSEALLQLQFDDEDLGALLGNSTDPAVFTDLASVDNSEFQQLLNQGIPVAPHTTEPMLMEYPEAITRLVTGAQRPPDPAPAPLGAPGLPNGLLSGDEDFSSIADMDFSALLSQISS

O=C(O)c1cc(O)c(O)c(O)c1 [GALLIC ACID]
IC50 [1]: 10.4 µM

Oc1ccc(CCCC[C@@H](O)CCc2ccc(O)cc2)cc1
ID50 (Mus musculus [2]): 0.66 mg
Activity (RAW264.7 [3]): 52%
IC50 [4]: 44.4 µM
IC50 (RAW264.7 [5]): 27.8 µM
inhibition at 30 µM (RAW264.7 [6]): 29%

O=C(CCc1ccc(O)c(O)c1)C[C@H](CCc1ccc(O)c(O)c1)O[C@@H]1O[C@H](CO)[C@@H](O)[C@H](O)[C@H]1O
inhibition at 10 µg/mL (J774.A1 [7]): 75%
IC50 (RAW264.7 [8]): 29.4 µg/mL (≈ 57.8 µM)
IC50 (RAW264.7 [9]): 10 µM
inhibition at 10 µg/mL (J774.A1 [10]): 51%
IC50 (RAW264.7 [11]): 33.7 µg/mL (≈ 66.3 µM)

O=C(CCc1ccc(O)c(O)c1)C[C@@H](O)CCc1ccc(O)c(O)c1 [HIRSUTANONOL]
inhibition (INH) (MCF-10A): 22%
IC50 (RAW264.7 [12]): 19.3 µM
IC50 (RAW264.7 [8]): 44.3 µg/mL (≈ 128 µM)
IC50 (RAW264.7 [13]): 3.8 µM
IC50 (RAW264.7 [14]): 9.9 µM
IC50 (RAW264.7 [9]): 30 µM
IC50 (RAW264.7 [15]): 17.8 µM
IC50 [16]: 19 µM
IC50 [4]: 26 µM
IC50 (RAW264.7 [5]): 21.3 µM
IC50 (RAW264.7 [17]): 23.7 µM
IC50 (RAW264.7 [11]): 25.7 µg/mL (≈ 74.2 µM)

O=C(/C=C/CCc1ccc(O)c(O)c1)CCc1ccc(O)c(O)c1 [DEHYDROHIRSUTANONOL]
inhibition (INH) (Mus musculus [18]): 57%
inhibition at […] [19]: 40%
IC50 [20]: 17.6 µM
inhibition at […] [21]: 49%
inhibition at […] [22]: 39%
IC50 (RAW264.7 [12]): > 100 µM
IC50 (RAW264.7 [8]): 27.2 µg/mL (≈ 82.8 µM)
inhibition at […] [23]: 37%
inhibition at […] [24]: 33%
inhibition (INH) (Mus musculus [25]): 62%
IC50 (RAW264.7 [14]): > 100 µM
IC50 (RAW264.7 [9]): 5 µM
IC50 (RAW264.7 [15]): 0.8 µM
inhibition at […] [26]: 43%
inhibition at 5 µM [27]: 73.4%
IC50 [16]: 16.8 µM
IC50 [4]: 13.4 µM
IC50 (RAW264.7 [5]): 5.8 µM
IC50 (RAW264.7 [28]): 14.1 µM
IC50 [29]: 39 µM
inhibition at […] [30]: 51%
inhibition (INH) (Mus musculus [31]): 73%
inhibition [32]: 29.5%
inhibition (INH) (Mus musculus [33]): 61%
inhibition (INH) (Mus musculus [34]): 74%
inhibition (INH) (Mus musculus [35]): 51%
IC50 (RAW264.7 [17]): > 100 µM
inhibition at […] [36]: 37%
inhibition (INH) (Mus musculus [37]): 60%
inhibition at […] [38]: 39%
IC50 (RAW264.7 [11]): 25 µg/mL (≈ 76.1 µM)
inhibition at […] [39]: 46%
inhibition (INH) (Mus musculus [40]): 37%

Reference: ChEMBL document CHEMBL5233262, “Anti-inflammatory activity of naturally occuring diarylheptanoids - A review” (Bioorg Med Chem, 2021)
